In general, IC50 refers to the concentration at which inhibition is half-maximal. As usually defined, the Tmax is the time at which the peak concentration occurs. The Cmax is the highest concentration seen after dosing. The AUC(0-t) is the area under the concentration-time curve up to a stated or last time point. Broadly, the half-life is the time in which the quantity being followed falls by half. The term clearance denotes the volume of plasma or blood freed of the substance per unit of time. As a reminder, the microsomal CLint is a measure of how fast metabolising enzymes remove a compound, apart from limits set by blood flow.

The values below come from ChEMBL document CHEMBL4840360, “Design, Synthesis, and Pharmacological Evaluation of Biaryl-Containing PD-1/PD-L1 Interaction Inhibitors Bearing a Unique Difluoromethyleneoxy Linkage” (J Med Chem, 2021).

Data set [1] concerns the target T1, Programmed cell death protein 1/Programmed cell death 1 ligand 1 (Homo sapiens, UniProt Q15116+Q9NZQ7). Nature of the data set: Inhibition of PD-1/PD-L1 interaction (unknown origin) by HTRF assay. It counts as protein-complex assay. (Time-resolved FRET reads energy transfer from a long-lived donor to a nearby acceptor.)
Data set [2] has as its target T1, Programmed cell death protein 1/Programmed cell death 1 ligand 1. Nature of the data set: Inhibition of PD-1/PD-L1 interaction in human PBMCs cocultured with H1299 cells assessed as increase in INFgamma expression at 0.1 uM incubated for 72 hrs in presence of alphaCD3/alphaCD28 by ELISA. It counts as cell-based. Conditions: PBMC.
Data set [3] can be described thus: Tmax in rat at 3 mg/kg, po. It counts as ADME, organism-based. As to conditions: in vivo.
Data set [4] is described as follows: Cmax in rat at 3 mg/kg, po. It counts as ADME, organism-based. Also on record: route oral, dose 3 mg/kg. Conditions: in vivo.
Data set [5] in a line: AUClast in rat at 3 mg/kg, po. In kind it is ADME, organism-based. Also on record: time 0 - last, route oral, dose 3 mg/kg. Conditions: in vivo.
The nature of data set [6]: Half life in rat at 1 mg/kg, iv. In kind it is ADME, organism-based. Conditions: in vivo.
The nature of data set [7]: AUClast in rat at 1 mg/kg, iv. In kind it is ADME, organism-based. Also on record: time 0 - last, route intravenous, dose 1 mg/kg. As to conditions: in vivo.
Data set [8] in a line: Observed clearance in rat at 1 mg/kg, iv. It counts as ADME, organism-based. Conditions: in vivo.
Data set [9] can be described thus: Observed volume of distribution at steady state in rat at 1 mg/kg, iv. In kind it is ADME, organism-based. Conditions: in vivo, read-out: Vdss.
The subject of data set [10] is Hepa1-6. Kind of data set: Antitumor activity against […] Hepa1-6 cells xenografted in C57BL/6 […] mouse model assessed as tumor growth inhibition at 1 mg/kg, IM administered every other day and measured three times per week. It counts as functional, organism-based. Background: Xenograft models place foreign cells or tissue in a host animal.
A short description of data set [11]: Antitumor activity against […] Hepa1-6 cells xenografted in C57BL/6 mouse syngeneic model assessed as tumor growth inhibition at 1 mg/kg, IM administered every other day and measured three times per week. In kind it is functional. Conditions: Hepa1-6, im, read-out: TGI.
A short description of data set [12]: Microsomal stability in mouse assessed as clearance. It counts as ADME. As to conditions: microsomes.
Data set [13] can be described thus: Microsomal stability in mouse assessed as half life. Conditions: microsomes. It counts as ADME.
The subject of data set [14] is Hepa1-6. Kind of data set: Antitumor activity against […] Hepa1-6 cells xenografted in C57BL/6 mouse model assessed as increase in infiltration of IFNgamma+ CD8+ T-cells in tumor by flow cytometry analysis. It counts as functional, cell-based.
For data set [15], the system named is Hepa1-6. Kind of data set: Antitumor activity against […] Hepa1-6 cells xenografted in C57BL/6 mouse model assessed as increase in infiltration of GrzB+ CD8+ T-cells in tumor by flow cytometry analysis. In kind it is functional, cell-based.
Data set [16] relates to Hepa1-6. Kind of data set: Antitumor activity against […] Hepa1-6 cells xenografted in C57BL/6 mouse model assessed as increase in infiltration of IFNgamma+ GrzB+ CD8+ T-cells in tumor by flow cytometry analysis. In kind it is functional, cell-based.
The target of data set [17] is T1, Programmed cell death protein 1/Programmed cell death 1 ligand 1. Nature of the data set: Inhibition of PD-1/PD-L1 interaction in human Jurkat T cells expressing PD-1 cocultured with CHO cells expressing PD-Ll/TCR assessed as activation of Jurkat cells by luciferase reporter gene assay. It counts as cell-based.
The target in data set [18] is T2, Programmed cell death protein 1/Programmed cell death 1 ligand 1 (Mus musculus) (UniProt Q9EP73+Q02242). Kind of data set: Inhibition of PD1/PDL1 protein-protein interaction in mouse CD8-positive T cells cocultured with Hepa1-6 cells assessed as increase in CD107a expression in CD8+ T cells incubated for 5 hrs in presence of alphaCD3/alphaCD28 and IL-2 stimulation by flow cytometry analysis. In kind it is cell-based. Conditions: dose 0.75-3 µM. (Flow cytometry measures light scatter and fluorescence of single cells or particles in a stream.)

The target of data set [19] is T2, Programmed cell death protein 1/Programmed cell death 1 ligand 1 (Mus musculus). Kind of data set: Inhibition of PD1/PDL1 protein-protein interaction in mouse CD8-positive T cells cocultured with Hepa1-6 cells assessed as increase in ratio of IFNgamma+ CD8+ T cells at 0.75 to 3 uM incubated for 48 hrs in presence of alphaCD3/alphaCD28 and IL-2 stimulation by flow cytometry analysis. In kind it is cell-based. Conditions: dose 0.75-3 µM.

For data set [20] the target is unchanged. Nature of the data set: Inhibition of PD1/PDL1 protein-protein interaction in mouse CD8-positive T cells cocultured with Hepa1-6 cells assessed as increase in ratio of GrzB+ CD8+ T cells at 0.75 to 3 uM incubated for 48 hrs in presence of alphaCD3/alphaCD28 and IL-2 stimulation by flow cytometry analysis. It counts as cell-based. Conditions: dose 0.75-3 µM.

The target is the same in data set [21]. Kind of data set: Inhibition of PD1/PDL1 protein-protein interaction in mouse CD8-positive T cells cocultured with Hepa1-6 cells assessed as increase in ratio of IFNgamma+ GrzB+ CD8+ T cells at 0.75 to 3 uM incubated for 48 hrs in presence of alphaCD3/alphaCD28 and IL-2 stimulation by flow cytometry analysis. It counts as cell-based. As to conditions: dose 0.75-3 µM.

For data set [22] the target is unchanged. Nature of the data set: Inhibition of PD1/PDL1 protein-protein interaction in mouse CD8-positive T cells cocultured with Hepa1-6 cells assessed as increase in IFNgamma secretion incubated for 48 hrs in presence of alphaCD3/alphaCD28 and IL-2 stimulation by ELISA. In kind it is cell-based. Conditions: dose 0.75-3 µM.

The source made the active and inactive calls. No cut-off for these calls is given here.

T1 sequence (Q15116 whole entry): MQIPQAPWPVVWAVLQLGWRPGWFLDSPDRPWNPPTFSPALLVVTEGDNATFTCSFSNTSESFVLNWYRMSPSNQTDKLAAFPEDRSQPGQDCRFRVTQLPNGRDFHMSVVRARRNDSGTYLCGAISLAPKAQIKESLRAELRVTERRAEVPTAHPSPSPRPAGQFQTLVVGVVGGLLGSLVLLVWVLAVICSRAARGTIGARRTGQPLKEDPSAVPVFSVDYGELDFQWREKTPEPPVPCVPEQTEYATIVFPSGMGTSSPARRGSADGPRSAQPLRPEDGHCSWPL
T1 sequence (Q9NZQ7 whole entry): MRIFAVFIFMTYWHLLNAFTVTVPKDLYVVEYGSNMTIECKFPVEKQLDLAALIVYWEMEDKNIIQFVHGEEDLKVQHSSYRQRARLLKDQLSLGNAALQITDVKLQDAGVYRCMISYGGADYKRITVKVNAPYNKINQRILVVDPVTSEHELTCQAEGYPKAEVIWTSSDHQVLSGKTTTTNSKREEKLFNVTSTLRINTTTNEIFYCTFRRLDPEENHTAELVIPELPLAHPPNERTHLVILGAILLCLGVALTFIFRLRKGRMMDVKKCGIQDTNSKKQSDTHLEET

For `Cc1c(-c2ccc3c(c2)OCCO3)cccc1C(F)(F)Oc1cc(OCc2cncc(C#N)c2)c(CNC(CO)(CO)CO)cc1Cl`, the concentration for half-maximal inhibition (IC50) in data set [1] is 5.68 nM. Besides, the inhibition entry in [2] was “Active”. In addition, the Tmax in data set [3] came out at 0.33 h. Besides, in data set [4], the concentration peaked (Cmax) at 4.82 ng/mL. For the same compound, the AUC(0-t) amounted to 2.83 ng·h/mL in [5] and 188 ng·h/mL in data set [7]. The compound further showed a half-life in [6] of 1.32 h. In data set [8], this compound gave a clearance of 89 mL/min/kg. The Vd in data set [9] is 4.18 L/kg.

With `Cc1cc(OC(F)(F)c2cccc(-c3ccc4c(c3)OCCO4)c2C)cc(OCc2cccc(C#N)c2)c1CNC(CO)(CO)CO`, the IC50 in data set [1] stood at 30.5 nM.

As for `Cc1c(-c2ccc3c(c2)OCCO3)cccc1C(F)(F)Oc1cc(OCc2ccnc(C#N)c2)c(CN2CCCC[C@H]2C(=O)OCC(F)(F)F)cc1Cl`, in data set [1], the half-inhibitory concentration (IC50) was more than 1000 nM.

On to `Cc1c(-c2ccc3c(c2)OCCO3)cccc1C(F)(F)Oc1cc(OCc2ccnc(C#N)c2)c(CN[C@@H](CO)[C@@H](O)[C@@H](O)[C@H](O)CO)cc1Cl`, for which the 50% inhibitory concentration (IC50) in [1] worked out at 7.1 nM. For the same compound, in [2], the inhibition entry was “Active”. In [6], the half-life is 3.14 h. In data set [7], the AUC(0-t) worked out at 141 ng·h/mL. This compound also displayed a clearance in [8] of 131 mL/min/kg. Moreover, the Vd in data set [9] was 18 L/kg.

`Cc1cc(OC(F)(F)c2cccc(-c3ccc4c(c3)OCCO4)c2C)cc(OCc2cccc(C#N)c2)c1CN[C@H](CO)C(=O)O` returned an IC50 in data set [1] of 31.9 nM.

Take `Cc1cc(OC(F)(F)c2cccc(-c3ccc4c(c3)OCCO4)c2C)cc(OCc2cccc(C#N)c2)c1CNC(C)(CO)CO`: the IC50 in [1] amounted to 16.3 nM.

`Cc1cc(OC(F)(F)c2cccc(-c3ccc4c(c3)OCCO4)c2C)cc(OCc2cccc(C#N)c2)c1CN[C@@H](C(=O)O)[C@H](C)O` showed an IC50 in [1] of 54.7 nM.

`Cc1c(-c2ccc3c(c2)OCCO3)cccc1C(F)(F)Oc1cc(OCc2ccnc(C#N)c2)c(CN2CCCC[C@H]2C(=O)O)cc1Cl` had an IC50 in [1] of 2.99 nM. Further, the inhibition result in data set [2] was “Active”. Moreover, the time to peak (Tmax) in [3] turned out to be 2.83 h. This compound yielded a Cmax in [4] of 0.698 ng/mL. Further, the AUC(0-t) in data set [5] is 0.701 ng·h/mL; in [7], 117 ng·h/mL. This compound also gave a half-life in data set [6] of 0.71 h. For the same compound, the clearance in data set [8] was 143 mL/min/kg. Besides, in data set [9], the Vd amounted to 5.31 L/kg.

Take `Cc1c(-c2ccc3c(c2)OCCO3)cccc1C(F)(F)Oc1cc(OCc2cccc3nonc23)c(CNC(CO)(CO)CO)cc1Cl`: the IC50 in data set [1] was 7.05 nM.

Compound `Cc1c(-c2ccc3c(c2)OCCO3)cccc1C(F)(F)Oc1cc(OCc2ccnc(C#N)c2)c(CN2CCCC[C@H]2C(=O)N[C@@H]2C(O)O[C@H](CO)[C@@H](O)[C@@H]2O)cc1Cl` (some centres not stated) had an IC50 in [1] of 28.8 nM.

In data set [1], `Cc1c(-c2ccc3c(c2)OCCO3)cccc1C(F)(F)Oc1cc(OCc2ccnc(C#N)c2)c(CNC(CO)(CO)CO)cc1Cl` registered an IC50 of 6.32 nM.

Compound `CC(=O)OCCOC(=O)[C@@H]1CCCCN1Cc1cc(Cl)c(OC(F)(F)c2cccc(-c3ccc4c(c3)OCCO4)c2C)cc1OCc1ccnc(C#N)c1` came in with an IC50 in data set [1] of more than 1000 nM.

For the compound `CON(C)C(=O)[C@@H]1CCCCN1Cc1cc(Cl)c(OC(F)(F)c2cccc(-c3ccc4c(c3)OCCO4)c2C)cc1OCc1ccnc(C#N)c1`, in data set [1], the IC50 was more than 1000 nM.

`CC(=O)OCOC(=O)[C@@H]1CCCCN1Cc1cc(Cl)c(OC(F)(F)c2cccc(-c3ccc4c(c3)OCCO4)c2C)cc1OCc1ccnc(C#N)c1`: the IC50 in data set [1] turned out to be 28.8 nM.

The compound `Cc1c(-c2ccc3c(c2)OCCO3)cccc1C(F)(F)Oc1cc(OCc2cccc(C#N)c2)c(CNC(C)(CO)CO)cc1Cl` registered a half-maximal inhibitory concentration (IC50) in [1] of 5.93 nM.

In the case of `Cc1c(-c2ccc3c(c2)OCCO3)cccc1C(F)(F)Oc1cc(OCc2ccnc(C#N)c2)c(CN[C@@H]2C(O)O[C@H](CO)[C@@H](O)[C@@H]2O)cc1Cl` (some centres not stated), the result with Hepa1-6 [10], in the data set on Hepa1-6 [14], in the data set with Hepa1-6 [15] and in the data set with Hepa1-6 [16] was Active. Also, in data set [11], the inhibition in vivo at 1 mg/kg was found to be 53.1%. Also, the microsomal CLint in data set [12] worked out at 46.1 µL/min/mg. Besides, the half-maximal inhibitory concentration (IC50) in [1] came out at 10.2 nM; in [17], 3160 nM. The inhibition entry in [2], in data set [19], in [20] and in data set [21] was “Active” in each case. For the same compound, the figures for the half-life in data set [6] and in data set [13] were 4.84 h and 1.25 h, respectively. Moreover, in [7], the AUC(0-t) came out at 464 ng·h/mL. In [8], this compound returned a clearance of 40 mL/min/kg. Besides, the Vd in data set [9] is 3.92 L/kg. In addition, the inhibition entry in data set [18] and in [22] was “Dose-Dependent Effect” each time.

On to `Cc1cc(OCc2cccc(-c3ccc4c(c3)OCCO4)c2C)cc(OCc2cccc(C#N)c2)c1CN[C@H](CO)C(=O)O`, for which the microsomal CLint in [12] was found to be 52.5 µL/min/mg. Further, the concentration for half-maximal inhibition (IC50) in [1] amounted to 48.2 nM. Besides, the half-life is 0.47 h in data set [6] and 1.1 h in data set [13]. Also, in data set [7], the AUC(0-t) was 142 ng·h/mL. Moreover, the clearance in [8] amounted to 124 mL/min/kg. In addition, in data set [9], the Vd is 1.33 L/kg.
